# Test results: patent publication US12329158B2, “Large-scale methods of uniformly coating packaging surfaces with a volatile antimicrobial to preserve food freshness” (AGROFRESH INC., priority 2013, dated 2025)
# How the values were obtained:
# [1] = tested on: Penicillium digitatum; experiment: Green mold on orange, volatile assay (Example 25); type: in vivo; conditions: 50 mg/L, day 3 at 21 C after 5 days at 1 C
# [2] = tested on: Penicillium expansum; experiment: Blue mold on apple and pear, volatile assay (Example 25); conditions: 50 mg/L, day 3 at 21 C after 5 days at 1 C
# [3] = tested on: Penicillium digitatum; experiment: Green mold on orange, contact assay (Example 25); type: in vivo; conditions: Contact (dip); rate not given; day 3 at 21 C after 5 days at 1 C
# Protocol: (§1) A 250 mL solution of each concentration is used to dip two inoculated fruits, one minute per fruit, performed in triplicate per rate. The dipped fruits are then placed back into the clamshells and then into the SnapWare container and incubated at 1° C. for 5 days. […] Volatile application of Compound A results in excellent inhibition of browning and sporulation, whereas all other active ingredients result in no or little inhibition.
# [4] = tested on: Penicillium expansum; experiment: Blue mold on apple and pear, contact assay (Example 25); type: in vivo; conditions: Contact (dip); rate not given; day 3 at 21 C after 5 days at 1 C
# Protocol: as §1
# [5] = tested on: Monilinia fructicola; experiment: Volatile MIC assay (Example 9); type: cell-based; conditions: 72 h, headspace concentration, 3 days at 23 C, read-out: MIC (mg/L) MONIFC
# Protocol: (§2) A 3-mL volume of full-strength Potato Dextrose Agar (PDA) is added to each well. […] Plates are inoculated immediately prior to volatile fungicide treatment. A Whatman #1 filter disk (Cat. No. 1001-0155) is placed, in duplicate, on the underside of a polyethylene PCR plate sealing film. […] The acetone is permitted to evaporate for 5 minutes. The headspace around the inoculum is then sealed inside the well by the film with the adhering disk containing the fungicide by inverting the plates over the treated disks and sealing to prevent any of the chemical from flaking from the disk and falling onto the inoculated agar.
# [6] = tested on: Botrytis cinerea; experiment: Volatile MIC assay (Example 9); type: cell-based; conditions: 72 h, headspace concentration, 3 days at 23 C, read-out: MIC (mg/L) BOTRCI
# Protocol: as §2
# [7] = tested on: Glomerella cingulata; experiment: Volatile MIC assay (Example 9); type: cell-based; conditions: Colletotrichum gloeosporioides, 72 h, headspace concentration, 3 days at 23 C, read-out: MIC (mg/L) GLOMCI
# Protocol: as §2
# [8] = tested on: Penicillium expansum; experiment: Volatile MIC assay (Example 9); type: cell-based; conditions: 72 h, headspace concentration, 3 days at 23 C, read-out: MIC (mg/L) PENIEX
# Protocol: as §2
# [9] = tested on: Alternaria alternata; experiment: Volatile MIC assay (Example 9); type: cell-based; conditions: 72 h, headspace concentration, 3 days at 23 C, read-out: MIC (mg/L) ALTEAL
# Protocol: as §2
# [10] = tested on: Botrytis cinerea; experiment: In vitro volatile assay (Example 24); type: cell-based; conditions: 72 h, headspace, 100% control, 3 days at 23 C, read-out: Volatile MIC (mg/L) B. cinerea
# Protocol: (§3) Volatile assay: 12-well (6.5 mL volume per well) microtiter plates are used. A 3-mL volume of half strength PDA is added to each well. […] A Whatman #1 filter disk (Cat. No. 1001-0155) is placed, in duplicate, on the underside of a polyethylene PCR plate sealing film. […] The acetone is permitted to evaporate for 5 minutes. The headspace around the inoculum is then sealed inside the well by the film with the adhering disk containing the fungicide. Plates are inverted, placed over the treated disks, and sealed to prevent any of the chemical from flaking from the disk and falling onto the inoculated agar. […] Contact assay: 6-well (16.5 mL volume per well) microtiter plates are used for an in vitro inhibition assay. […] A 7.5-mL volume of the amended media is added to each well of the microtiter plate. […] The plates are sealed with a clear film and incubated for 3 days at 23° C. After incubation, plates are evaluate for percent growth relative to acetone only control.
# [11] = tested on: Penicillium expansum; experiment: In vitro volatile assay (Example 24); type: cell-based; conditions: 72 h, headspace, 100% control, 3 days at 23 C, read-out: Volatile MIC (mg/L) P. expansum
# Protocol: as §3
# [12] = tested on: P. expansum; experiment: In vitro contact assay, amended agar (Example 24); type: cell-based; conditions: Penicillium expansum, 72 h; amended agar; 100% control; 3 days at 23 C; read-out: Contact MIC (mg/L) P. expansum
# Protocol: (§4) Contact assay: 6-well (16.5 mL volume per well) microtiter plates are used for an in vitro inhibition assay. […] A 7.5-mL volume of the amended media is added to each well of the microtiter plate. […] The plates are sealed with a clear film and incubated for 3 days at 23° C. After incubation, plates are evaluate for percent growth relative to acetone only control.
# [13] = tested on: B. cinerea; experiment: In vitro contact assay, amended agar (Example 24); type: cell-based; conditions: Botrytis cinerea, 72 h; amended agar; 100% control; 3 days at 23 C; read-out: Contact MIC (mg/L) B. cinerea
# Protocol: as §4
MIC [5] [mg/L],MIC [6] [mg/L],MIC [7] [mg/L],MIC [8] [mg/L],MIC [9] [mg/L],MIC [10] [mg/L],MIC [11] [mg/L],MIC [12] [mg/L],MIC [13] [mg/L],Structure (SMILES),Orange Sporulation (mm) [1] [mm],Apple Browning (mm) [2] [mm],Apple Sporulation (mm) [2] [mm],Pear Browning (mm) [2] [mm],Pear Sporulation (mm) [2] [mm],Orange Sporulation (mm) [3] [mm],Apple Browning (mm) [4] [mm],Apple Sporulation (mm) [4] [mm],Pear Browning (mm) [4] [mm],Pear Sporulation (mm) [4] [mm]
–,–,–,–,–,–,–,–,–,O=C(Nc1ccccc1-c1ccc(Cl)cc1)c1cccnc1Cl [Boscalid],30.3,10.3,2.4,14.3,3.6,>50,7.0,0.8,8.6,2.3
8.9,2.2,17.9,17.9,4.5,4.5,17.9,2,2,COB1OCc2ccccc21 [Compound 6],–,–,–,–,–,–,–,–,–,–
8.9,2.2,71.4,17.9,8.9,–,–,–,–,COCCCOB1OCc2ccccc21 [Compound 7],–,–,–,–,–,–,–,–,–,–
4.5,2.2,71.4,35.7,8.9,–,–,–,–,COCCOB1OCc2ccccc21 [Compound 8],–,–,–,–,–,–,–,–,–,–
8.9,2.2,35.7,8.9,8.9,–,–,–,–,CC(C)OB1OCc2ccccc21 [Compound 9],–,–,–,–,–,–,–,–,–,–
8.5,3.8,9.3,29.5,16.1,–,–,–,–,OB1OCc2cc(Cl)ccc21 [Compound 201],–,–,–,–,–,–,–,–,–,–
–,–,–,–,–,–,–,–,–,N#Cc1c[nH]cc1-c1cccc2c1OC(F)(F)O2 [Fludioxonil],40.8,11.2,3.1,12.8,2.8,8.3,2.9,0.0,3.3,0.0
–,–,–,–,–,–,–,–,–,C=CCOC(Cn1ccnc1)c1ccc(Cl)cc1Cl (stereo not shown) [Imazalil],41.4,11.1,3.0,14.3,3.4,0.0,6.9,0.9,7.9,1.0
–,–,–,–,–,–,–,–,–,Cc1cc(C)nc(Nc2ccccc2)n1 [Pyrimethanil],22.3,11.3,2.6,14.0,6.5,0.0,8.1,2.4,8.9,5.2
–,–,–,–,–,–,–,–,–,c1ccc2[nH]c(-c3cscn3)nc2c1 [Thiabendazole],>50,8.4,2.0,12.9,3.0,0.0,8.2,1.9,9.1,5.4
